Reference: ChEMBL document CHEMBL1201862, “PubChem BioAssay data set” (2004)
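Grown in 96-well plates, cells were treated for 48 hours with each compound at five concentrations. Insufficient inhibition: endpoint recorded as highest concentration tested. GI50 is the concentration that inhibits growth by half.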 Activity calls are given as the source filed them. No stated cut-off is given here; in the data, active = GI50 up to about 1.1 µM and inactive = higher.

Tests used:
Assay in all cases: NCI-60 cell line screen, 48 h
UO-31 = test system: UO-31
ACHN = test system: ACHN
Hs-578T = test system: Hs-578T
T47D = test system: T47D
IGROV-1 = test system: IGROV-1
HL-60 = test system: HL-60
Malme-3M = test system: Malme-3M
SNB-19 = test system: SNB-19
MDA-N = test system: MDA-N
NCI-H460 = test system: NCI-H460
UACC-257 = test system: UACC-257
CAKI-1 = test system: CAKI-1
K562 = test system: K562
NCI/ADR-RES = test system: NCI/ADR-RES
NCI-H226 = test system: NCI-H226
SK-MEL-2 = test system: SK-MEL-2
UACC-62 = test system: UACC-62
COLO 205 = test system: COLO 205
EKVX = test system: EKVX

Measured: GI50

O=C(O)c1cc2ccc3ccccc3c2oc1=O
inactive: UO-31 > 100 µM | ACHN > 100 µM | Hs-578T > 100 µM | T47D > 100 µM | IGROV-1 > 100 µM | HL-60 > 100 µM | Malme-3M > 100 µM | SNB-19 > 100 µM | MDA-N > 100 µM | NCI-H460 > 100 µM | UACC-257 > 100 µM | CAKI-1 > 10 µM | K562 > 100 µM | NCI/ADR-RES > 100 µM | NCI-H226 > 100 µM | SK-MEL-2 > 100 µM | UACC-62 > 100 µM | COLO 205 > 100 µM | EKVX 31.3 µM

COc1cc(S(=O)(=O)Nc2ccc(-c3csc(N4C(=O)CSC4c4ccccc4)n3)cc2)ccc1Cl (stereo not given)
inactive: UO-31 79.4 µM | ACHN 15.2 µM | Hs-578T 55.6 µM | T47D 16.3 µM | IGROV-1 51.4 µM | HL-60 20.8 µM | Malme-3M > 100 µM | SNB-19 13.7 µM | MDA-N 39.9 µM | NCI-H460 31.4 µM | UACC-257 40.9 µM | CAKI-1 > 100 µM | K562 39.7 µM | NCI/ADR-RES > 100 µM | NCI-H226 94.4 µM | SK-MEL-2 37.2 µM | UACC-62 13.2 µM | COLO 205 35.6 µM | EKVX 20.6 µM

CCOC(=O)CCC(NC(=O)Cc1ccc(Nc2nc3ccccc3nc2-c2ccccc2)cc1)C(=O)OCC (stereo not given)
inactive: UO-31 > 100 µM | ACHN 41.5 µM | Hs-578T 10.2 µM | T47D > 100 µM | IGROV-1 51.8 µM | HL-60 > 100 µM | Malme-3M 33 µM | SNB-19 24.2 µM | MDA-N > 100 µM | NCI-H460 > 100 µM | UACC-257 > 100 µM | CAKI-1 > 100 µM | K562 > 100 µM | NCI/ADR-RES 50.5 µM | NCI-H226 72.1 µM | SK-MEL-2 16.5 µM | UACC-62 50.4 µM | COLO 205 > 100 µM | EKVX 63 µM

CC(C)NC(=O)OCc1c(COC(=O)NC(C)C)c(-c2cc[n+](COC(=O)C3CC3)cc2)n2c1CCC2
inactive: UO-31 > 100 µM | ACHN 32.4 µM | Hs-578T > 100 µM | T47D > 100 µM | IGROV-1 > 100 µM | HL-60 86.7 µM | Malme-3M > 100 µM | SNB-19 > 100 µM | MDA-N > 100 µM | NCI-H460 > 100 µM | UACC-257 > 100 µM | CAKI-1 > 100 µM | K562 > 100 µM | NCI/ADR-RES > 100 µM | NCI-H226 > 100 µM | SK-MEL-2 > 100 µM | UACC-62 > 100 µM | COLO 205 > 100 µM | EKVX > 100 µM

NC1=Nc2cc(Cl)ccc2Sc2nc3ccccc3n21
inactive: UO-31 > 100 µM | ACHN > 100 µM | Hs-578T > 72.3 µM | T47D > 33.8 µM | IGROV-1 4.7 µM | HL-60 2.39 µM | Malme-3M > 100 µM | SNB-19 22.2 µM | MDA-N 3.44 µM | NCI-H460 4.13 µM | UACC-257 5.83 µM | CAKI-1 > 100 µM | K562 3.47 µM | NCI/ADR-RES > 100 µM | NCI-H226 2.86 µM | SK-MEL-2 20 µM | UACC-62 4.66 µM | COLO 205 2.5 µM | EKVX 20.3 µM

O=c1c2c(nc3[nH]ccn13)CCC2
inactive: UO-31 > 10 µM | ACHN > 10 µM | Hs-578T > 10 µM | T47D > 10 µM | IGROV-1 > 10 µM | HL-60 > 10 µM | Malme-3M > 10 µM | SNB-19 > 10 µM | MDA-N > 10 µM | NCI-H460 > 10 µM | UACC-257 > 10 µM | CAKI-1 > 10 µM | K562 > 10 µM | NCI/ADR-RES > 10 µM | NCI-H226 > 10 µM | SK-MEL-2 > 10 µM | UACC-62 > 10 µM | COLO 205 > 10 µM | EKVX > 10 µM

CCOC(=O)c1nc2cc(C(F)(F)F)ccc2nc1Oc1ccc(OC)cc1
inactive: UO-31 > 100 µM | ACHN > 100 µM | Hs-578T > 100 µM | T47D > 100 µM | IGROV-1 > 100 µM | HL-60 > 100 µM | Malme-3M > 100 µM | SNB-19 > 100 µM | MDA-N > 100 µM | NCI-H460 70.8 µM | UACC-257 > 100 µM | CAKI-1 > 100 µM | K562 > 100 µM | NCI/ADR-RES > 100 µM | NCI-H226 > 100 µM | SK-MEL-2 > 100 µM | UACC-62 > 100 µM | COLO 205 > 100 µM | EKVX > 100 µM

C=CC1(C)OC2(CCN(C(=O)OCC)CC2)OC1C (stereo not given)
inactive: UO-31 > 100 µM | ACHN > 100 µM | Hs-578T > 100 µM | T47D > 100 µM | IGROV-1 > 100 µM | HL-60 > 100 µM | Malme-3M > 100 µM | SNB-19 > 100 µM | MDA-N > 100 µM | NCI-H460 > 100 µM | UACC-257 > 100 µM | CAKI-1 > 100 µM | K562 45.7 µM | NCI/ADR-RES > 100 µM | NCI-H226 > 100 µM | SK-MEL-2 > 100 µM | UACC-62 > 100 µM | COLO 205 > 100 µM | EKVX > 100 µM

O=C(C(=O)n1ccc2ccccc21)c1c[nH]c2ccccc12
inactive: UO-31 > 10 µM | ACHN > 10 µM | Hs-578T > 10 µM | T47D > 10 µM | IGROV-1 > 10 µM | HL-60 > 10 µM | Malme-3M > 10 µM | SNB-19 > 10 µM | MDA-N > 10 µM | NCI-H460 > 10 µM | UACC-257 > 10 µM | CAKI-1 > 10 µM | K562 > 10 µM | NCI/ADR-RES > 10 µM | NCI-H226 > 10 µM | SK-MEL-2 > 10 µM | UACC-62 > 10 µM | COLO 205 > 10 µM | EKVX > 10 µM

C[C@H]1C[C@H](C)c2ccccc2N(C)/C1=N\c1ccccc1
inactive: UO-31 39 µM | ACHN 34.4 µM | Hs-578T 24.7 µM | T47D 32.8 µM | IGROV-1 21.9 µM | HL-60 3.93 µM | Malme-3M 22.6 µM | SNB-19 37.8 µM | MDA-N 23.4 µM | NCI-H460 15.8 µM | UACC-257 20.3 µM | CAKI-1 63.1 µM | K562 66.7 µM | NCI/ADR-RES 27.2 µM | NCI-H226 24.5 µM | SK-MEL-2 20.5 µM | UACC-62 23.5 µM | COLO 205 18.4 µM | EKVX 25.5 µM
